Assay results reported in the supplement of paper PMC10307832.

Columns and labels:
Experiment in all cases: relative viability (nuclei count vs DMSO), 5 days (fraction); higher = more cells survive
AGI-6780 + Tozasertib = compound: O=C(Nc1cccc(C(F)(F)F)c1)Nc1cc(S(=O)(=O)NC2CC2)ccc1-c1ccsc1 [AGI-6780] + Cc1cc(Nc2cc(N3CCN(C)CC3)nc(Sc3ccc(NC(=O)C4CC4)cc3)n2)n[nH]1 [Tozasertib] (partner 0.1 µM)
How it was run: (§1)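 The day after seeding in 1536-well plates, lung cancer cell lines were treated by pin tool with a single drug, or with a fixed anchor-drug dose together with five library-drug doses (not always all listed) in √10 steps. After 5 days, a combined fix-and-stain solution (final 0.05% Triton X-100, 1% formaldehyde, 1 ug/ml Hoechst) was added. Nuclei counted on 4× images gave relative viability as treated counts over vehicle counts, reported as the median of duplicate plates.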

AGI-6780 + Bortezomib = compound: O=C(Nc1cccc(C(F)(F)F)c1)Nc1cc(S(=O)(=O)NC2CC2)ccc1-c1ccsc1 [AGI-6780] + CC(C)C[C@H](NC(=O)[C@H](Cc1ccccc1)NC(=O)c1cnccn1)B(O)O [Bortezomib] (partner 0.002 µM)
How it was run: as §1

AGI-6780 + Decitabine = compound: O=C(Nc1cccc(C(F)(F)F)c1)Nc1cc(S(=O)(=O)NC2CC2)ccc1-c1ccsc1 [AGI-6780] + Nc1ncn([C@H]2C[C@H](O)[C@@H](CO)O2)c(=O)n1 [Decitabine] (partner 2 µM)
How it was run: as §1

AGI-6780 + AZD7762 = compound: O=C(Nc1cccc(C(F)(F)F)c1)Nc1cc(S(=O)(=O)NC2CC2)ccc1-c1ccsc1 [AGI-6780] + NC(=O)Nc1cc(-c2cccc(F)c2)sc1C(=O)N[C@H]1CCCNC1 [AZD7762] (partner 0.2 µM)
How it was run: as §1

| Cell Line | relative viability (AGI-6780 + Tozasertib; first compound 0.08 µM) | relative viability (AGI-6780 + Tozasertib; first compound 0.253 µM) | relative viability (AGI-6780 + Tozasertib; first compound 0.8 µM) | relative viability (AGI-6780 + Tozasertib; first compound 2.53 µM) | relative viability (AGI-6780 + Tozasertib; first compound 8 µM) | relative viability (AGI-6780 + Bortezomib; first compound 0.08 µM) | relative viability (AGI-6780 + Bortezomib; first compound 0.253 µM) | relative viability (AGI-6780 + Bortezomib; first compound 0.8 µM) | relative viability (AGI-6780 + Bortezomib; first compound 2.53 µM) | relative viability (AGI-6780 + Bortezomib; first compound 8 µM) | relative viability (AGI-6780 + Decitabine; first compound 0.08 µM) | relative viability (AGI-6780 + Decitabine; first compound 0.253 µM) | relative viability (AGI-6780 + Decitabine; first compound 0.8 µM) | relative viability (AGI-6780 + Decitabine; first compound 2.53 µM) | relative viability (AGI-6780 + Decitabine; first compound 8 µM) | relative viability (AGI-6780 + AZD7762; first compound 0.08 µM) | relative viability (AGI-6780 + AZD7762; first compound 0.253 µM) | relative viability (AGI-6780 + AZD7762; first compound 0.8 µM) | relative viability (AGI-6780 + AZD7762; first compound 2.53 µM) | relative viability (AGI-6780 + AZD7762; first compound 8 µM) |
| --- | --- | --- | --- | --- | --- | --- | --- | --- | --- | --- | --- | --- | --- | --- | --- | --- | --- | --- | --- | --- |
| LOU-NH91 | 0.725 | 0.642 | 0.63 | 0.583 | 0.64 | 0.475 | 0.597 | 0.472 | 0.605 | 0.512 | 0.834 | 0.811 | 0.803 | 0.826 | 0.802 | 0.759 | 0.802 | 0.79 | 0.67 | 0.812 |
| HCC-15 | 0.625 | 0.438 | 0.547 | 0.186 | 0.458 | 1.1 | 0.993 | 1.06 | 1.04 | 1.02 | 0.677 | 0.756 | 0.666 | 0.546 | 0.697 | 1.18 | 1.32 | 1.34 | 1.43 | 1.25 |
| HCC-827 | 0.226 | 0.433 | 0.41 | 0.405 | 0.432 | 0.927 | 1.1 | 0.996 | 1.12 | 1.15 | 0.331 | 0.314 | 0.39 | 0.29 | 0.336 | 0.223 | 0.269 | 0.356 | 0.236 | 0.187 |
| NCI-H1703 | – | – | – | – | – | 0.473 | 0.315 | 0.509 | 0.364 | 0.375 | – | – | – | – | – | 0.14 | 0.139 | 0.0936 | 0.112 | 0.133 |
| NCI-H2405 | 0.813 | 0.728 | 0.565 | 0.766 | 0.661 | 0.972 | 0.978 | 0.925 | 0.798 | 1.01 | – | 0.781 | 0.662 | 0.626 | 0.66 | – | 0.725 | 0.603 | 0.752 | 0.658 |
| PC-3 [JPC-3] | 0.943 | 0.859 | 0.94 | 0.858 | 0.813 | 0.816 | 0.796 | 0.753 | 0.856 | 0.782 | – | 0.797 | 0.868 | 0.802 | 0.775 | – | 0.758 | 0.984 | 0.877 | 0.729 |
| NCI-H2085 | 0.755 | 0.736 | 0.779 | 0.809 | 0.61 | 1.04 | 1.09 | 1.02 | 1.08 | 1.13 | 0.574 | 0.534 | 0.523 | 0.474 | 0.537 | 1.07 | 1 | 0.995 | 1.06 | 1 |
| 201T | 0.916 | 0.95 | 0.938 | 0.835 | 0.968 | 1.11 | 0.981 | 1.02 | 1.1 | 1.1 | 0.88 | 0.841 | 0.861 | 0.87 | 0.878 | 0.612 | 0.577 | 0.565 | 0.535 | 0.656 |
| NCI-H1975 | 0.9 | 0.819 | 0.738 | – | 0.474 | 0.337 | 0.303 | 0.34 | 0.331 | 0.351 | 0.38 | 0.427 | 0.38 | 0.377 | 0.382 | 0.662 | 0.848 | 0.821 | 0.653 | 0.711 |
